Results published in PubChem BioAssay AID264 (DTP/NCI, 2004).
“And” between values parts separate entries of the source, which are not always exact repeats. Equal entries are not always repeated. Inconclusive results are not listed. Bridge positions count the residues as written; N and C are the ends. Square brackets hold non-standard residues; d marks the D form. Peptide text beside a SMILES is read from it. I, II: the chains in the order shown. * marks the point of attachment. Quinoxaline2carbonyl = O=C(c1cnc2ccccc2n1)*; NMeV = CN[CH](C(=O)O)C(C)C; NMeC = CN[CH](CS)C(=O)O

Test system: nude mice, LX-1 lung xenograft intrarenal, tumor weight T/C
Experiment: NCI In Vivo Anticancer Drug Screen. Data for tumor model Human Lung LX-1 Xenograft (intrarenal inoculation) in NU/NU Swiss (nude) mice
Settings: endpoint: mean tumor weight change, higher = larger tumour
Description: The antitumor activity of compounds was measured in mice bearing transplantable tumors. Survival or tumor size were measured and the results are expressed as the measurement made in the treated group (T) divided by the measurement made in the vehicle treated control group (C). The tumor model used in this assay is Human Lung LX-1 Xenograft (intrarenal inoculation) in NU/NU Swiss (nude) mice

[1] = dose: 300.0 mg/kg/injection, schedule: Q04DX003 (sc), vehicle: saline with Tween-80
[2] = dose: 600.0 mg/kg/injection, schedule: Q04DX003 (sc), vehicle: saline with Tween-80
[3] = dose: 1200.0 mg/kg/injection, schedule: Q04DX003 (sc), vehicle: saline with Tween-80

SMILES: Nc1nc(F)nc2c1ncn2C1OC(COP(=O)(O)O)C(O)C1O (stereo not drawn)
- T/C (dose: 50.0 mg/kg/injection, schedule: Q01DX010 (sc), vehicle: saline): 55 % of control
- T/C (dose: 50.0 mg/kg/injection, schedule: Q01DX010 (sc), vehicle: suspension in saline): 53 % of control and 70 % of control
- T/C (dose: 100.0 mg/kg/injection, schedule: Q01DX010 (sc), vehicle: saline): 20 % of control and 30 % of control
- T/C (dose: 100.0 mg/kg/injection, schedule: Q01DX010 (sc), vehicle: suspension in saline): 56 % of control and 59 % of control
- T/C (dose: 200.0 mg/kg/injection, schedule: Q01DX010 (sc), vehicle: suspension in saline): 6 % of control and 18 % of control
- T/C (dose: 400.0 mg/kg/injection, schedule: Q01DX010 (sc), vehicle: saline): -72 % of control
- T/C (dose: 400.0 mg/kg/injection, schedule: Q01DX010 (sc), vehicle: suspension in saline): -62 % of control

SMILES: [I][Hg][CH2]C1COC([CH2][Hg][I])CO1 (stereo not drawn)
- T/C (dose: 150.0 mg/kg/injection, schedule: Q04DX003 (sc), vehicle: saline with Tween-80): 105 % of control
- T/C [1]: 97 % of control
- T/C [2]: 80 % of control
- T/C [3]: 97 % of control

SMILES: COc1ccc2c(NCCCCCCNc3c4ccccc4nc4cc(OC)ccc34)c3ccccc3nc2c1
- T/C (dose: 1.25 mg/kg/injection, schedule: Q01DX010 (sc), vehicle: lactic acid): 105 % of control
- T/C (dose: 2.5 mg/kg/injection, schedule: Q01DX010 (sc), vehicle: lactic acid): 100 % of control
- T/C (dose: 10.0 mg/kg/injection, schedule: Q01DX010 (sc), vehicle: lactic acid): 48 % of control

SMILES: NC(CSC(c1ccccc1)(c1ccccc1)c1ccccc1)C(=O)O (stereo not drawn)
- T/C (dose: 25.0 mg/kg/injection, schedule: Q01DX010 (sc), vehicle: Klucel (hydroxypropylcellulose) (HPC)): 86 % of control
- T/C (dose: 50.0 mg/kg/injection, schedule: Q01DX010 (sc), vehicle: Klucel (hydroxypropylcellulose) (HPC)): 155 % of control

SMILES: O=NN(CCCl)C(=O)Oc1ccc(OC(=O)N(CCCl)N=O)cc1
- T/C (dose: 300.0 mg/kg/injection, schedule: Q04DX003 (sc), vehicle: Klucel (hydroxypropylcellulose) (HPC)): 110 % of control
- T/C (dose: 600.0 mg/kg/injection, schedule: Q04DX003 (sc), vehicle: Klucel (hydroxypropylcellulose) (HPC)): 70 % of control
- T/C (dose: 1200.0 mg/kg/injection, schedule: Q04DX003 (sc), vehicle: Klucel (hydroxypropylcellulose) (HPC)): 49 % of control

SMILES: COc1cc(Cc2nccc3cc(OC)c(OC)cc23)c(C(C)=O)c(OC)c1
- T/C (dose: 40.0 mg/kg/injection, schedule: Q01DX010 (sc), vehicle: saline): 78 % of control
- T/C (dose: 80.0 mg/kg/injection, schedule: Q01DX010 (sc), vehicle: saline): 57 % of control
- T/C (dose: 160.0 mg/kg/injection, schedule: Q01DX010 (sc), vehicle: saline): 67 % of control

SMILES: CC1NC(=O)C(NC(=O)c2cnc3ccccc3n2)COC(=O)C(C(C)C)N(C)C(=O)C2CSSCC(C(=O)N(C)C(C(C)C)C(=O)OCC(NC(=O)c3cnc4ccccc4n3)C(=O)NC(C)C(=O)N2C)N(C)C1=O (stereo not drawn) (I: Quinoxaline2carbonyl-SA[NMeC][NMeV] / II: Quinoxaline2carbonyl-SA[NMeC][NMeV]; ester I:1-II:C, I:C-II:1; disulfide I:3-II:3; configuration not given here)
- T/C (dose: 100.0 micrograms/kg/injection, schedule: Q04DX003 (sc), vehicle: Klucel (hydroxypropylcellulose) (HPC)): 104 % of control
- T/C (dose: 200.0 micrograms/kg/injection, schedule: Q04DX003 (sc), vehicle: Klucel (hydroxypropylcellulose) (HPC)): 83 % of control
- T/C (dose: 400.0 micrograms/kg/injection, schedule: Q04DX003 (sc), vehicle: Klucel (hydroxypropylcellulose) (HPC)): 54 % of control

SMILES: Cc1cc2nc3c(=O)[nH]c(=O)nc-3n(CC(O)C(O)C(O)C(O)CO)c2cc1C (stereo not drawn)
- T/C (dose: 100.0 mg/kg/injection, schedule: Q01DX010 (sc), vehicle: saline with Tween-80): 75 % of control
- T/C (dose: 200.0 mg/kg/injection, schedule: Q01DX010 (sc), vehicle: saline with Tween-80): 92 % of control
- T/C (dose: 400.0 mg/kg/injection, schedule: Q01DX010 (sc), vehicle: saline with Tween-80): 66 % of control

SMILES: Oc1cc2c3c(c1)c1cc4c(cc1c[n+]3CC2)OCO4
- T/C (dose: 25.0 mg/kg/injection, schedule: Q04DX003 (sc), vehicle: water): 102 % of control
- T/C (dose: 50.0 mg/kg/injection, schedule: Q04DX003 (sc), vehicle: water): 124 % of control
- T/C (dose: 100.0 mg/kg/injection, schedule: Q04DX003 (sc), vehicle: water): 93 % of control
- T/C (dose: 200.0 mg/kg/injection, schedule: Q04DX003 (sc), vehicle: water): 103 % of control

SMILES: O=C(O)C1Cc2nc[nH]c2CN1CO (stereo not drawn)
- T/C [1]: 74 % of control
- T/C [2]: 85 % of control
- T/C [3]: 41 % of control
- T/C (dose: 2400.0 mg/kg/injection, schedule: Q04DX003 (sc), vehicle: saline with Tween-80): 87 % of control

SMILES: CCCCC(=O)OCC(=O)[C@]1(O)Cc2c(O)c3c(c(O)c2[C@@H](OC2CC(NC(=O)C(F)(F)F)C(O)C(C)O2)C1)C(=O)c1c(OC)cccc1C3=O (stereo partly drawn)
- T/C (dose: 32.0 mg/kg/injection, schedule: Q01DX010 (sc), vehicle: distilled water + Tween-80): 84 % of control
- T/C (dose: 512.0 mg/kg/injection, schedule: Q01DX010 (sc), vehicle: distilled water + Tween-80): 5 % of control and 8 % of control and 26 % of control
